From patent US7173021B2, “Synthesis of temozolomide esters as potent anticancer pro-drugs for topical and transdermal applications in treatments of cancers” (Tianjin North Pharm Sci-Tech Co., Ltd., priority 2004, dated 2007)
In brackets after ≈: the same amount, converted by molar mass. Marks after values point to notes of the source that are not given here.

Columns and labels:
[1] = tested on: Bel7402 (human hepatocellulor); assay: In vitro tumour cell growth inhibition (MTT), Bel-7402; type: cell-based; conditions: Table 1 experiment, 96 h
Description: Temozolomide (white powder), temozolomide acid (white powder) and temozolomide-8-carboxylate hexyl (white scale crystal) were made in house. For the estimation of in vitro tumour cell growth inhibition, MV3 (human melanoma), M14 (human melanoma), B16 and B16-BL6 (mouse melanoma), SHG-44, TJ899 and TJ905 (human glioma), MCF-7 (human breast), HCT-8 (human colon), A549 (human non small lung), Bel7402 (human hepatocellulor), and BGC-823 (human stomach) were used. All tumour cells were cultured in RPMI-1640 medium supplemented with 10% fetal bovine serum (FBS) at 37° C. in a humidified 5% CO2 incubator.
After being harvested from culture flasks, a cell suspension of 1×10^4/ml was made by using 1640 RPMI medium supplemented with 10% fetal bovine serum. 100 μl (contains 1000 tumour cells) of the cell suspension was seeded per well of 96-well flat-bottom Costar culture plates at 37° C. in a humidified 5% CO2 incubator for 24 hrs before introducing drugs. Each tested compounds was made for five different concentrations and 100 μl of the each concentration was introduced into parallel three wells; control wells were added with 100 μl of plain medium alone; fluorouracil (a chemotherapeutic antitumour drug) was used as the positive control. Cells were then incubated for 96 h. Proliferative response and cell death were determined using MTT (3-(4,5-dimethylthiazolyl)-2,5-diphenyl-tetrazolium bromide) assay.
MTT assay: Following incubation of cells with the tested compounds for 96 h, 100 μl of 0.4 mg/ml MTT in RPMI 1640 was added to each well and the plate was incubated at 37° C. for 4 h. The plate was then centrifuged and followed by removal of medium. 150 μl of DMSO was then added to dissolve formazan crystal. DMSO-added plates were placed on a plate shaker for 5 min and absorbance was measured spectrophotometrically at 540 nm (with reference wavelength at 450 nm) using a Benchmark microtiter plate reader (Bio-Rad 550, Bio-Rad Laboratories, CA, U.S.A.).
The IC50 was calculated from the curve of the tested compound concentrations against the inhibition rate of the tumour cells. […]

[2] = Measured log P, octanol/water; type: physicochemical; conditions: octanol/water system; read-out: measured Log P (mLog P)
Description: Log P values of temozolomide (1) and the temozolomide esters were calculated using TSAR (Oxford Molecular, Oxford, UK), Molecular Modeling Pro (ChemSW, Fairfield, Calif.) and Chem Office 7.0 (CambridgeSoft, Cambridge, UK) programmes. Calculated Log P values were verified for temozolomide and the temozolomide hexyl ester by measuring the octanol/water coefficient (Table 4).

[3] = Solubility in 10% v/v propylene glycol; type: physicochemical; conditions: 10% v/v propylene glycol aqueous solution, aqueous with cosolvent or surfactant or cyclodextrin, thermodynamic from solid, ambient conditions, stirred 5 hours, read-out: Solubility, Concentration
Description: The potential of temozolomide esters used as topical and transdermal prodrugs is first proven through studies of their solubility. That is a decreased trend of solubility in an aqueous solution with increase of the length of the ester hydrocarbon alkyl chain of the temozolomide esters. It is clear the solubility constantly decreases from the methyl ester to the octyl ester, while temozolomide itself is 3.0 mg/ml similar to that of the methyl ester. […] Similarly to the esters, the solubility of the temozolomide amide products in the aqueous solution is considerably lower than that of temozolomide.
The solubility of temozolomide and the temozolomide esters was determined in 10% v/v propylene glycol by stirring an excess of the solid products at room temperature for 5 hours. The mixtures were then filtered, diluted with sample solvent and analysed using HPLC.

[4] = tested on: MV3 melanoma (human); assay: In vivo antitumour activity, BALB/c nude mice inoculated with MV3 melanoma, topical application; conditions: 20 mg/mouse/day topical
Description: The temozolomide hexyl ester is chosen to conduct an in viva antitumour test. BALB/c nude mice were inoculated with MV3 melanoma (human). Once the tumour volume became 100–300 mm^3, the mice were divided into a controlled and a tested group of eight with a rational distribution of the mice according to the sizes of the tumours. The tested group was treated with 5% (W/V) free made dimethyl sulfoxide (DMSO) solution of the temozolomide hexyl ester twice a day (once on Saturday and Sunday) via repeated topical application (total dosage is 20 mg/mouse/day), while the controlled group was left to grow naturally. In a period of two-week experiment, the tumour growth in the mice was carefully recorded through body weighing and the measurement of the tumour sizes. After two weeks, the mice were scarified; tumour bulks were separated and weighed. The results of inhibition of tumour growth by the temozolomide hexyl ester are summarized in Table 5 and depicted in FIG. 10.
Preparation of 5% (W/V) DMSO solution of the temozolomide hexyl ester is carried out by weighing a actual amount of the temozolomide hexyl ester, then using DMSO to make the concentration to 50 mg/ml. After temozolomide hexyl ester is completely dissolved and a clear solution is obtained, the fresh made 5% (W/V) DMSO solution of the temozolomide hexyl ester is used in the experiments.
BALB/c nude mice were inoculated with MV3 melanoma (human). Once the tumour bulk became 100–300 mm^3, the mice were divided into a controlled and a tested group with a rational distribution of the mice according to the sizes of the tumours. Each group is consisted of 8 mice.
The tested group was treated with 5% (W/V) DMSO solution of the temozolomide hexyl ester twice a day (once on Saturday and Sunday) via repeated topical application on position of tumour and around of 2×2 cm^2 region (total dosage is 20 mg/mouse/day); while the controlled group was left free of treatment to allow the tumour to growth naturally.
The tumour volumes (TV) in the mice were measured for twice of a week, calculated using TV(mm^3)=(length×width^2)÷2, and carefully recorded and finally depicted in FIG. 10. After two weeks, the mice were scarified; tumour bulks were isolated, weighed and calculated the growth inhibition rate of MV3 melanoma (human) in BALB/c nude mice by the temozolomide hexyl ester. The antitumour activity of the temozolomide hexyl ester against MV3 melanoma (human) in BALB/c nude mice is evaluated by the relative tumour proliferation ratio (T/C %). T/C (%) is calculated by the following equation:
Where, RTV=Vt/Vo (Vo is the tumour volume (TV) at the time when the mice were divided into the tested group and the controlled group; Vt is the tumour volume (TV) were measured at each time interval FIG. 10). The criteria for effectiveness are (1) when T/C (%)>60, the compound is no effect; (2) when T/C (%)≦60 and statistically significant P<0.05, the compound is effect. In the case of the temozolomide hexyl ester, the T/C (%) in BALB/c nude mice bearing MV3 melanoma (human) is 33.7% (Table 3) and P<0.05.

CCCCCCOC(=O)c1ncn2c(=O)n(C)nnc12 [temozolomide hexyl ester, Hexyl 3,4-dihydro-3-methyl-4-oxoimidazo[5,1-d]-1,2,3,5-tetrazine-8-carboxylate]
IC50 [1]: 27.2 µg/mL (≈ 97.4 µM)
logP [2]: 2.56
solubility at 5 h [3]: 400 µg/mL (≈ 1430 µM)
Body weight, end ([4]; after two weeks, mean ± SD): 22.9 ± 2.23 g
Tumour weight ([4]; after two weeks, mean ± SD): 0.41 ± 0.318 g
Tumour volume, end ([4]; after two weeks, mean ± SD, P < 0.05 vs control): 622 ± 545.1* mm^3
Body weight, start ([4]; start, mean ± SD): 24.0 ± 1.53 g
Tumour volume, start ([4]; start, mean ± SD): 116 ± 27 mm^3
RTV ([4]; RTV=Vt/Vo, two weeks): 3.01 ± 1.95
Inhibition (%) of tumour growth ([4]; from tumour weight, two weeks): 80.5%
T/C (%) ([4]; relative tumour proliferation ratio, two weeks): 33.7%
